The target of one assay is KRas G12C (Homo sapiens, UniProt P01116, C118S/C51S/C80L/G12C). The assay can be described thus: KRas G12C Modification Assay (LCMS detection of covalent adduct). It counts as binding. The settings on record: normalized percent of control; tested at 5 μM concentration for 3 hours. The method in brief:
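Cys-light KRas G12C mutant protein incubated with compound in K-Ras assay buffer, reactions quenched at set time points with 25 mM acetic acid and analysed by intact-protein LC/MS on a C-3 column. Deconvoluted mass heights expressed as percent of control (POC) relative to compound-free protein.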

The test system of assay [1] is NCI-H358 cells (express KRas G12C), Phospho-ERK. The assay can be described thus: Cellular inhibition of KRas G12C: Phospho-ERK in NCI-H358 cells. To be noted: pERK(Thr202/Tyr204) normalized with GAPDH, NCI-H358 cells, 3 hours, read-out: IC50. It counts as cell-based. The method in brief: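 IC50 derived by 4-parameter fit of GAPDH-normalized pERK(Thr202/Tyr204) signal, as percent of DMSO control. Signal came from in-cell immunodetection with infrared secondaries after 3 h compound exposure of KRas G12C NCI-H358 cells at 0.5% DMSO.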

Read-outs that look alike come from different tables or passages of the source.

Our source for the POC and IC50 values is patent US10125134B2 (Mirati Therapeutics, Inc., priority 2016, dated 2018).

For the compound `C=CC(=O)N1C[C@H](C)N(c2nc(OC[C@@H]3CCCN3C)nc3c2CCN(c2cccc4ccccc24)C3)C[C@@H]1CC#N` [Example 368, 2-((2S,5S)-1-acryloyl-5-methyl-4-(2-(((S)-1-methylpyrrolidin-2-yl)methoxy)-7-(naphthalen-1-yl)-5,6,7,8-tetrahydropyrido[3,4-d]pyrimidin-4-yl)piperazin-2-yl)acetonitrile], the POC result at KRas G12C was “C (“C”>50% POC)”. Also, in assay [1] (Homo sapiens, NCI-H358, 3 h), the half-inhibitory concentration (IC50) (in general, the point on the concentration scale where inhibition reaches its midpoint) was above 1000 nM.

On to `C=CC(=O)N1CCN(c2nc(OCCCN3C[C@@H]4C[C@H]3CO4)nc3c2CCN(c2cccc4cccc(C)c24)C3)C[C@@H]1CC#N` [Example 369, 2-((S)-4-(2-(3-((1 S,4S)-2-oxa-5-azabicyclo[2.2.1]heptan-5-yl)propoxy)-7-(8-methylnaphthalen-1-yl)-5,6,7,8-tetrahydropyrido[3,4-d]pyrimidin-4-yl)-1-acryloylpiperazin-2-yl)acetonitrile], for which the POC entry at KRas G12C is reported as “C (“C”>50% POC)”. In addition, the IC50 in assay [1] (Homo sapiens, NCI-H358, 3 h) is 0.1 to 1000 nM.

In the case of `C=CC(=O)N1CCN(c2nc(OCCCN3CCOCC3)nc3c2CCN(c2cccc4cccc(C)c24)C3)C[C@@H]1CC#N` [Example 370, (S)-2-(1-acryloyl-4-(7-(8-methylnaphthalen-1-yl)-2-(3-morpholinopropoxy)-5,6,7,8-tetrahydropyrido[3,4-d]pyrimidin-4-yl)piperazin-2-yl)acetonitrile], the POC entry at KRas G12C was “C (“C”>50% POC)”. Moreover, the IC50 in assay [1] (Homo sapiens, NCI-H358, 3 h) lay in the range of 0.1 to 1000 nM.

Consider `C=CC(=O)N1CCN(c2nc(OCCC(=O)N(C)C)nc3c2CCN(c2cccc4cccc(C)c24)C3)C[C@@H]1CC#N` [Example 371, (S)-3-((4-(4-acryloyl-3-(cyanomethyl)piperazin-1-yl)-7-(8-methylnaphthalen-1-yl)-5,6,7,8-tetrahydropyrido[3,4-d]pyrimidin-2-yl)oxy)-N,N-dimethylpropanamide], for which, on KRas G12C, the POC result is on record as “C (“C”>50% POC)”. Besides, in assay [1] (Homo sapiens, NCI-H358, 3 h), the IC50 lay in the range of 0.1 to 1000 nM.

As to `C/C=C/C(=O)N1CCN(c2nc(OC[C@@H]3CCCN3C)nc3c2CCN(c2cccc4cccc(C)c24)C3)C[C@@H]1CC#N` [Example 372, 2-((S)-1-((E)-but-2-enoyl)-4-(7-(8-methylnaphthalen-1-yl)-2-(((S)-1-methylpyrrolidin-2-yl)methoxy)-5,6,7,8-tetrahydropyrido[3,4-d]pyrimidin-4-yl)piperazin-2-yl)acetonitrile], at KRas G12C, the POC result is on record as “C (“C”>50% POC)”. The IC50 in assay [1] (Homo sapiens, NCI-H358, 3 h) fell in the range of 0.1 to 1000 nM.

For the compound `C=CC(=O)N1CCN(c2nc(OC[C@@H]3CCCN3C)nc3c2CCN(c2ncccc2C(F)(F)F)C3)CC1CC#N` (stereo partly drawn) [Example 373, 2-(1-acryloyl-4-(2-(((S)-1-methylpyrrolidin-2-yl)methoxy)-7-(3-(trifluoromethyl)pyridin-2-yl)-5,6,7,8-tetrahydropyrido[3,4-d]pyrimidin-4-yl)piperazin-2-yl)acetonitrile], the POC entry on KRas G12C is reported as “C (“C”>50% POC)”. The IC50 in assay [1] (Homo sapiens, NCI-H358, 3 h) was above 1000 nM.

As for `C=CC(=O)N1CCN(c2nc(OC[C@@H]3CCCN3C)nc3c2CCN(c2ccccc2CC(F)(F)F)C3)CC1CC#N` (stereo partly drawn) [Example 374, 2-(1-acryloyl-4-(2-(((S)-1-methylpyrrolidin-2-yl)methoxy)-7-(2-(2,2,2-trifluoroethyl)phenyl)-5,6,7,8-tetrahydropyrido[3,4-d]pyrimidin-4-yl)piperazin-2-yl)acetonitrile], the POC result at KRas G12C was “C (“C”>50% POC)”. Moreover, in assay [1], the IC50 is above 1000 nM.

On to `CC#CC(=O)N1CCN(c2nc(OC[C@@H]3CCCN3C)nc3c2CCN(c2cccc4ccccc24)C3)CC1CC#N` (stereo partly drawn) [Example 376, 2-(1-(but-2-ynoyl)-4-(2-(((S)-1-methylpyrrolidin-2-yl)methoxy)-7-(naphthalen-1-yl)-5,6,7,8-tetrahydropyrido[3,4-d]pyrimidin-4-yl)piperazin-2-yl)acetonitrile 2,2,2-trifluoroacetate], for which the POC result on KRas G12C is “C (“C”>50% POC)”. In addition, the IC50 in assay [1] (Homo sapiens, NCI-H358, 3 h) lay within 0.1 to 1000 nM.

Turning to `C=CC(=O)N1CCN(c2nc(OC[C@@H]3CCCCN3C)nc3c2CCN(c2cccc4ccccc24)C3)C[C@@H]1CC#N` [Example 377, 2-((S)-1-acryloyl-4-(2-(((S)-1-methylpiperidin-2-yl)methoxy)-7-(naphthalen-1-yl)-5,6,7,8-tetrahydropyrido[3,4-d]pyrimidin-4-yl)piperazin-2-yl)acetonitrile], the POC result on KRas G12C is “C (“C”>50% POC)”. In assay [1] (Homo sapiens, NCI-H358, 3 h), the IC50 lay within 0.1 to 1000 nM.

Turning to `C=CC(=O)N1C[C@@H](C)N(c2nc(OC[C@@H]3CCCN3C)nc3c2CCN(c2cccc4ccccc24)C3)C[C@@H]1CC#N` [Example 378, 2-((2S,5R)-1-acryloyl-5-methyl-4-(2-(((S)-1-methylpyrrolidin-2-yl)methoxy)-7-(naphthalen-1-yl)-5,6,7,8-tetrahydropyrido[3,4-d]pyrimidin-4-yl)piperazin-2-yl)acetonitrile], at KRas G12C, the POC result is “C (“C”>50% POC)”. The IC50 in assay [1] (Homo sapiens, NCI-H358, 3 h) fell in the range of 0.1 to 1000 nM.

As for `C=CC(=O)N1CCN(c2nc(OC[C@@H]3CCCN3C)nc3c2CCN(c2ccccc2C(F)(F)F)C3)C[C@@H]1CC#N` [Example 379, 2-((S)-1-acryloyl-4-(2-(((S)-1-methylpyrrolidin-2-yl)methoxy)-7-(2-(trifluoromethyl)phenyl)-5,6,7,8-tetrahydropyrido[3,4-d]pyrimidin-4-yl)piperazin-2-yl)acetonitrile], at KRas G12C, the POC entry is on record as “C (“C”>50% POC)”. Besides, the half-inhibitory concentration (IC50) in assay [1] lay within 0.1 to 1000 nM.

Turning to `C=CC(=O)N1CCN(c2nc(OC[C@@H]3CCCN3CCOC)nc3c2CCN(c2cccc4ccccc24)C3)CC1CC#N` (stereo partly drawn) [Example 380, 2-(1-acryloyl-4-(2-(((S)-1-(2-methoxyethyl)pyrrolidin-2-yl)methoxy)-7-(naphthalen-1-yl)-5,6,7,8-tetrahydropyrido[3,4-d]pyrimidin-4-yl)piperazin-2-yl)acetonitrile], the POC result on KRas G12C is on record as “C (“C”>50% POC)”. Besides, in assay [1], the IC50 was 0.1 to 1000 nM.

Take `C=CC(=O)N1CCN(c2nc(OC[C@@H]3C[C@@H](OC)CN3C)nc3c2CCN(c2cccc4ccccc24)C3)CC1CC#N` (stereo partly drawn) [Example 381, 2-(1-acryloyl-4-(2-(((2S,4R)-4-methoxy-1-methylpyrrolidin-2-yl)methoxy)-7-(naphthalen-1-yl)-5,6,7,8-tetrahydropyrido[3,4-d]pyrimidin-4-yl)piperazin-2-yl)acetonitrile]: the POC result at KRas G12C is reported as “C (“C”>50% POC)”. In assay [1], the half-inhibitory concentration (IC50) was in the range of 0.1 to 1000 nM.

Take `C=CC(=O)N1CCN(c2nc(OC[C@@H]3CCCN3C)nc3c2CCN(c2cncc(F)c2C(F)(F)F)C3)C[C@@H]1CC#N` [Example 383, 2-((S)-1-acryloyl-4-(7-(5-fluoro-4-(trifluoromethyl)pyridin-3-yl)-2-(((S)-1-methylpyrrolidin-2-yl)methoxy)-5,6,7,8-tetrahydropyrido[3,4-d]pyrimidin-4-yl)piperazin-2-yl)acetonitrile]: the POC entry on KRas G12C is “C (“C”>50% POC)”. Moreover, in assay [1] (Homo sapiens, NCI-H358, 3 h), the half-maximal inhibitory concentration (IC50) lay within 0.1 to 1000 nM.

Take `C=CC(=O)N1CCN(c2nc(OC[C@@H]3C[C@@H](F)CN3C)nc3c2CCN(c2cncc(F)c2C(F)(F)F)C3)C[C@@H]1CC#N` [Example 384, 2-((S)-1-acryloyl-4-(2-(((2S,4R)-4-fluoro-1-methylpyrrolidin-2-yl)methoxy)-7-(5-fluoro-4-(trifluoromethyl)pyridin-3-yl)-5,6,7,8-tetrahydropyrido[3,4-d]pyrimidin-4-yl)piperazin-2-yl)acetonitrile]: the POC result on KRas G12C was “C (“C”>50% POC)”. For the same compound, in assay [1] (Homo sapiens), the IC50 lay in the range of 0.1 to 1000 nM.

As to `C=CC(=O)N1CCN(c2nc(OC[C@@H]3CCCN3C)nc3c2CCN(c2cncc(Cl)c2C(F)(F)F)C3)C[C@@H]1CC#N` [Example 385, 2-((S)-1-acryloyl-4-(7-(5-chloro-4-(trifluoromethyl)pyridin-3-yl)-2-(((S)-1-methylpyrrolidin-2-yl)methoxy)-5,6,7,8-tetrahydropyrido[3,4-d]pyrimidin-4-yl)piperazin-2-yl)acetonitrile], the POC entry at KRas G12C was “C (“C”>50% POC)”. Also, the IC50 in assay [1] (Homo sapiens, NCI-H358, 3 h) lay in the range of 0.1 to 1000 nM.

For the compound `C=CC(=O)N1CCN(c2nc(OC[C@@H]3C[C@@H](F)CN3C(C)C)nc3c2CCN(c2cncc(F)c2C(F)(F)F)C3)C[C@@H]1CC#N` [Example 386, 2-((S)-1-acryloyl-4-(2-(((2S,4R)-4-fluoro-1-isopropylpyrrolidin-2-yl)methoxy)-7-(5-fluoro-4-(trifluoromethyl)pyridin-3-yl)-5,6,7,8-tetrahydropyrido[3,4-d]pyrimidin-4-yl)piperazin-2-yl)acetonitrile], at KRas G12C, the POC result is given as “C (“C”>50% POC)”. In addition, the IC50 in assay [1] (Homo sapiens) is 0.1 to 1000 nM.

On to `C=CC(=O)N1CCN(c2nc(OC[C@@H]3CCCN3C)nc3c2CCN(c2cncc(Cl)c2C)C3)C[C@@H]1CC#N` [Example 387, 2-((S)-1-acryloyl-4-(7-(5-chloro-4-methylpyridin-3-yl)-2-(((S)-1-methylpyrrolidin-2-yl)methoxy)-5,6,7,8-tetrahydropyrido[3,4-d]pyrimidin-4-yl)piperazin-2-yl)acetonitrile], for which, on KRas G12C, the POC entry is “C (“C”>50% POC)”. Besides, the IC50 in assay [1] (Homo sapiens, NCI-H358, 3 h) lay in the range of 0.1 to 1000 nM.

For `C=CC(=O)N1CCN(c2nc(OC[C@@H]3CCCN3C)nc3c2CCN(c2cccc(F)c2C)C3)C[C@@H]1CC#N` [Example 388, 2-((S)-1-acryloyl-4-(7-(3-fluoro-2-methylphenyl)-2-(((S)-1-methylpyrrolidin-2-yl)methoxy)-5,6,7,8-tetrahydropyrido[3,4-d]pyrimidin-4-yl)piperazin-2-yl)acetonitrile], the POC result on KRas G12C was “C (“C”>50% POC)”. Besides, the IC50 in assay [1] (Homo sapiens, NCI-H358, 3 h) lay within 0.1 to 1000 nM.
